The values that follow come from patent US7265131B2, “Isoquinolinone derivatives and their use as therapeutic agents” (Exelixis, Inc., priority 2002, dated 2007).

The structures appear in SMILES notation.

This experiment concerns the target T1, LXR α (Homo sapiens, UniProt Q13133).
T1 construct: Co-transfection expression plasmids, comprising full-length LXR α (pCMX-hLXR α); expressed in transfected cells; host or cells: CV-1 African Green Monkey kidney cells, transient transfection
T1 sequence (Q13133 1-447): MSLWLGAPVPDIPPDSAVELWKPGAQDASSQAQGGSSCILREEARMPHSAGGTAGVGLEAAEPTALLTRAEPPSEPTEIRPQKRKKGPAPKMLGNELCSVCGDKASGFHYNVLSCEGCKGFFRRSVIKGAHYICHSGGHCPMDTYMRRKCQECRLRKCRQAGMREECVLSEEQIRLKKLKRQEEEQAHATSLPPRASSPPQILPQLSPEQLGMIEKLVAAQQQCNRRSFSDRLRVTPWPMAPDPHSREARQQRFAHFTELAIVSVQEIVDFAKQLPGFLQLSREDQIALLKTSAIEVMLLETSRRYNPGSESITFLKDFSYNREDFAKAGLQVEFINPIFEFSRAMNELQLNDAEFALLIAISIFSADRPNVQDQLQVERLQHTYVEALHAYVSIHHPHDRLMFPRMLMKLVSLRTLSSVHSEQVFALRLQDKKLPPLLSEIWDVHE
T1 sequence (P19793 1-462 partner): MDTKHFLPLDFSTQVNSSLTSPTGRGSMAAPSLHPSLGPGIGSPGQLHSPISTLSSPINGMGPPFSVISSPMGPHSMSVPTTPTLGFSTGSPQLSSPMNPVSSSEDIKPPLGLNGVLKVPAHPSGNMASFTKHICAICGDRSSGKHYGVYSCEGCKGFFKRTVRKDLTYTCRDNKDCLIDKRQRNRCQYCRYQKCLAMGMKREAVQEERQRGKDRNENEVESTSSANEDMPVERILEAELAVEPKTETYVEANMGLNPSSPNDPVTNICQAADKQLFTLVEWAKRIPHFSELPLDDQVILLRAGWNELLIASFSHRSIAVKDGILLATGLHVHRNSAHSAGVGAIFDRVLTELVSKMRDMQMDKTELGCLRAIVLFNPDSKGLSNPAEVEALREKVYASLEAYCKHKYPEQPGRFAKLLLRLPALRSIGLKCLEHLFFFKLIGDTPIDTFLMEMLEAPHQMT
In words: LXR/LXRE co-transfection assay (luciferase reporter, CV-1 cells). Type of experiment: cell-based. The settings on record: for Emax: CV-1, average percent efficacy, relative to control N-(3-((4-fluorophenyl)-(naphthalene-2-sulfonyl)amino)propyl)-2,2-dimethylpropionamide, read-out: % Eff(a); for EC50: average EC50 for agonism, cotransfection assay, CV-1 cells. An excerpt: To measure the ability of compounds to activate or inhibit the transcriptional activity of LXR in a cell based assay, the co-transfection assay was used. It has been shown that LXR functions as a heterodimer with RXR. For the co-transfection assay, expression plasmids for LXR and RXR are introduced via transient transfection into mammalian cells along with a luciferase reporter plasmid that contains one copy of a DNA sequence that is bound by LXR-RXR heterodimers (LXRE; Willy, P. et al. 1995). Treatment of transfected cells with an LXR agonist increases the transcriptional activity of LXR, which is measured by an increase in luciferase activity.
1. CV-1 African Green Monkey Kidney Cells
2. Co-transfection expression plasmids, comprising full-length LXR α (pCMX-hLXR α), LXR β (pCMX-hLXR β), or RXR α (pCMX-RXR), reporter plasmid (LXREx1-Tk-Luciferase), and control (pCMX-Galactosidase expression vector) (Willey et al. Genes & Development 9 1033-1045 (1995)).
CV-1 cells were prepared 24 hours prior to the experiment by plating them into T-175 flasks or 500 cm^2 dishes in order to achieve 70-80% confluency on the day of the transfection. The number of cells to be transfected was determined by the number of plates to be screened. Each 384 well plate requires 1.92×10^6 cells or 5000 cells per well. DNA Transfection Reagent was prepared by mixing the required plasmid DNAs with a cationic lipid transfection reagent FuGENE6 (Roche) by following the instructions provided with the reagents. Optimal DNA amounts were determined empirically per cell line and size of vessel to be transfected. 10-12 mL of media was added to the DNA Transfection Reagent and this mixture was added to the cells after aspirating media from the T175 cm^2 flask. Cells were then incubated at least 5 hours at 37° C. to prepare screening cells.
Luciferase assay reagent was prepared by combining before use (per 10 mL):
Assay plates were prepared by dispensing 5 μL of compound per well of a 384 well plate to achieve final compound concentration of 10 μM and no more than 1% DMSO. Media was removed from the screening cells, the cells trypsinized, harvested cells by centrifugation, counted, and plated at a density of approximately 5000 cells per well in the 384 well assay plate prepared above in a volume of about 45 μL. Assay plates containing both compounds and screening cells (50 μL in total volume) were incubated for 20 hours at 37° C.
After incubation with compounds, media was removed from the cells and lysis buffer (30 μuL/well) added. After 30 minutes at ambient temperature, luciferase assay buffer (30 μL/well) was added and the assay plates read on a luminometer (PE Biosystems Northstar reader with on-board injectors, or equivalent). Plates were read immediately after addition of luciferase assay buffer.
The LXR/LXRE co-transfection assay can be used to establish the EC50/IC50 values for potency and percent activity or inhibition for efficacy. Efficacy defines the activity of a compound relative to a high control ((N-(3-((4-fluorophenyl)-(naphthalene-2-sulfonyl)amino)propyl)-2,2-dimethylpropionamide)) or a low control (DMSO/vehicle). The dose response curves are generated from an 8 point curve with concentrations differing by ½ LOG units. Each point represents the average of 4 wells of data from a 384 well plate.
The data from this assay is fitted to the following equation, from the EC50 value may be solved: Y=Bottom+(Top-Bottom)/(1+10^((logEC50-X*HillSlope))
The EC50/IC50 is therefore defined as the concentration at which an agonist or antagonist elicits a response that is half way between the Top (maximum) and Bottom (baseline) values. The EC50/IC50 values represented are the averages of at least 3 independent experiments. […]
(A reporter such as luciferase makes a cellular process visible.)

In the case of `Cc1cccc(-c2cc3ccccc3c(=O)n2Cc2ccccc2)c1` [2-benzyl-3-m-tolyl-2H-isoquinolin-1-one], the Emax is less than 40% and the concentration for a half-maximal effect (EC50) (as a rule, the concentration giving half of the maximal effect) is greater than 500 nM.

Take `CS(=O)(=O)c1ccc(-c2ccc(-c3cc4cccc(Cl)c4c(=O)n3Cc3ccc(F)cc3F)s2)cc1` [8-chloro-2-(2,4-difluorobenzyl)-3-[5-(4-methanesulfonylphenyl)thiophen-2-yl]-2H-isoquinolin-1-one]: the Emax lay within 40 to 90% and the half-maximal effective concentration (EC50) fell in the range of 10 to 150 nM.

Consider `O=c1c2c(Cl)cccc2cc(-c2ccc(Oc3ccccc3)cc2)n1Cc1cccs1` [8-chloro-3-(4-phenoxyphenyl)-2-thiophen-2-ylmethyl-2H-isoquinolin-1-one], for which the Emax lay in the range of 40 to 90% and the EC50 lay in the range of 10 to 150 nM.

Regarding `Cc1ccc(Cn2c(-c3ccsc3)cc3ccccc3c2=O)c(C)c1` [2-(2,4-dimethylbenzyl)-3-thiophen-3-yl-2H-isoquinolin-1-one], the Emax lay within 40 to 90% and the concentration for a half-maximal effect (EC50) is greater than 500 nM.

Regarding `O=c1c2c(Cl)cccc2cc(-c2cc(-c3cc(C(F)(F)F)cc(C(F)(F)F)c3)co2)n1Cc1ccc(F)cc1F` [3-[4-(3,5-bis-trifluoromethylphenyl)furan-2-yl]-8-chloro-2-(2,4-difluorobenzyl)-2H-isoquinolin-1-one], the Emax was 40 to 90% and the EC50 fell in the range of 10 to 150 nM.

Regarding `Nc1ccc(-c2coc(-c3cc4cccc(Cl)c4c(=O)n3Cc3ccc(F)cc3F)c2)cc1C(F)(F)F` [3-[4-(4-amino-3-trifluoromethylphenyl)furan-2-yl]-8-chloro-2-(2,4-difluorobenzyl)-2H-isoquinolin-1-one], the Emax is greater than 90% and the EC50 was less than 10 nM.

Regarding `O=c1c2c(Cl)cccc2cc(-c2ccc(Oc3ccccc3)cc2)n1Cc1ccc(F)cc1F` [8-chloro-2-(2,4-difluorobenzyl)-3-(4-phenoxyphenyl)-2H-isoquinolin-1-one], the Emax is greater than 90% and the EC50 was 10 to 150 nM.

`O=c1c2c(Cl)cccc2cc(-c2ccc(Oc3ccccc3)cc2)n1CC1CCCCC1` [8-chloro-2-cyclohexylmethyl-3-(4-phenoxyphenyl)-2H-isoquinolin-1-one]: the Emax fell in the range of 40 to 90% and the EC50 lay within 10 to 150 nM.

In the case of `O=c1c2c(Cl)cccc2cc(-c2ccc(Oc3cnccn3)cc2)n1Cc1ccc(F)cc1F` [8-chloro-2-(2,4-difluorobenzyl)-3-[4-(pyrazin-2-yloxy)phenyl]-2H-isoquinolin-1-one], the Emax was greater than 90% and the EC50 was less than 10 nM.

Consider `Cc1cccc(-c2cc3ccccc3c(=O)n2Cc2ccc(C)cc2C)c1` [2-(2,4-dimethylbenzyl)-3-m-tolyl-2H-isoquinolin-1-one], for which the Emax fell in the range of 40 to 90% and the EC50 is 150 to 500 nM.

With `Cc1ccc(Cn2c(-c3ccc(Oc4ccccc4)cc3)cc3cccc(C)c3c2=O)cc1` [8-methyl-2-(4-methylbenzyl)-3-(4-phenoxyphenyl)-2H-isoquinolin-1-one], the Emax lay in the range of 40 to 90% and the EC50 fell in the range of 10 to 150 nM.

Take `Cc1ccc(Cn2c(-c3ccc(Oc4ccccc4)cc3)cc3ccccc3c2=O)c(C)c1` [2-(2,4-dimethylbenzyl)-3-(4-phenoxyphenyl)-2H-isoquinolin-1-one]: the Emax is greater than 90% and the concentration giving a half-maximal response (EC50) lay in the range of 10 to 150 nM.

Consider `CCOc1ccc(-c2csc(-c3cc4cccc(Cl)c4c(=O)n3Cc3ccc(F)cc3F)c2)cc1Cl` [8-chloro-3-[4-(3-chloro-4-ethoxyphenyl)thiophen-2-yl]-2-(2,4-difluorobenzyl)-2H-isoquinolin-1-one], for which the Emax lay within 40 to 90% and the 50% effective concentration (EC50) is 10 to 150 nM.

Regarding `Cc1ccc(Cn2c(C#CC(C)(C)O)cc3ccccc3c2=O)c(C)c1` [2-(2,4-dimethylbenzyl)-3-(3-hydroxy-3-methylbut-1-ynyl)-2H-isoquinolin-1-one], the Emax is 40 to 90% and the EC50 was greater than 500 nM.
